Test results as given in publication PMC5560554, “Targeting of CDK9 with indirubin 3’-monoxime safely and durably reduces HIV viremia in chronically infected humanized mice” (PLoS ONE, 2017).
“Also recorded” adds a separate entry of the source. Where two headings read alike, the source gives them in different places.

Key:
[1] = Toxicity study in BALB/c mice (daily i.p. 14 days; blood counts and chemistry profiles); type: in vivo; conditions: daily i.p. doses of up to 20 mg/kg for 14 days
Description: IM (Cayman Chemicals, Ann Arbor, MI) was dissolved in 10% Cremophor EL (Sigma, St. Louis, MO). Adult, female BALB/c mice were treated with IM (2.5, 5, and 20 mg/kg; n = 5 per dose) or its vehicle (10% Cremophor EL; n = 5) daily, via intraperitoneal (i.p.) injections, for 14 days. We used mice from a single sex to reduce potential variability of the data, although gender is not expected to have an effect on the toxicity of IM. On day 14, animals were anesthesized with ketamine-xylazine (100-150mg/kg Ketamine + 10-16mg/kg Xylazine) and, after confirming (via toe pinch) that a deep surgical plane of anesthesia had been reached, blood was collected by cardiac puncture. Blood samples were submitted for measurements of blood chemistry profiles and of blood counts.
There is currently limited information on IM toxicity. […] To better evaluate the toxicity of IM we conducted toxicity studies following standard protocols. We used BALB/c mice because, unlike NSG mice, are fully immunocompetent and thus more suitable for assessing hematological toxicities. BALB/c mice were treated with IM (2.5, 5 and 20 mg/kg; n = 5 per dose) or its vehicle (n = 5) daily, via i.p. injections, for 14 days. […] Mice were monitored daily for morbidity and mortality. […] The other 19 mice remained healthy and had no evidence of morbidity. […] Creatinine levels below reference ranges may be due to sample hemolysis. […]

HIV-1 NL4-3 = test: Drug susceptibility assay in PHA-activated PBMCs (HIV p24 ELISA day 7); type: cell-based; conditions: PBMCs, NL4-3, day 7
Description: The ARTs tenofovir, raltegravir and indinavir were obtained from the NIH AIDS Research and Reference Reagent Program (Gaithersburg, MD). Drug susceptibility assays were performed in PBMCs as previously. Briefly, donor PBMCs were activated by culture with phytohemagglutinin (PHA) for 3 days. Activated PBMCs were infected with HIV (M.O.I of 0.001) for 2 hours in the absence of IM or ARTs, washed to remove non-adsorbed virus, and plated in culture medium containing IL-2 and various dilutions of IM and ARTs alone and in combination. On day 3, fresh medium with fresh drug was added to the cultures. On day 7, cultures were evaluated for HIV production by measuring HIV p24 levels in the culture supernatants by ELISA (PerkinElmer Life Sciences, Inc., Boston, Massachusetts). Data were normalized to p24 levels in drug untreated controls (100%) and EC50 values determined by fitting the data to sigmoidal dose-response (variable slope) curves using GraphPad Prism 5.0 software.
A potential use of CDK9 inhibitor for the treatment of HIV will probably be in combination with ARTs from other classes. We thus evaluated the antiviral interaction between IM and ARTs from the NRTI, integrase and protease inhibitor classes in PBMCs infectivity assays in vitro. We used the virus strain HIV-1 NL4-3 to ensure a robust viral replication in the assays. Although HIV-1 NL4-3 differs from HIV-1 BaL in usage of coreceptor for cell entry, it is expected to have similar sensitivity to the tested ARTs. […] These enhancements of ART potencies by IM are consistent with targeting of different steps of the HIV cycle by IM and the tested ARTs.

HIV [2] = tested on: HIV; parameters: method as in PMID 16284457; conditions: lymphocytes; read-out: EC50 for inhibition of HIV in vitro; cited from earlier work
HIV [3] = tested on: HIV; parameters: method as in PMID 16284457; conditions: macrophages; read-out: EC50 for inhibition of HIV in vitro; cited from earlier work
HIV [4] = tested on: HIV; parameters: method as in PMID 24401082; conditions: cited from earlier work
CDK9 = tested on: CDK9; parameters: method as in PMID 16284457; conditions: cited from earlier work
primary lymphocytes = conditions: cited from earlier work
macrophages = conditions: cited from earlier work
[5] = in vivo; cited from earlier work

O=C1Nc2ccccc2/C1=C1/Nc2ccccc2/C1=N\O [IM, Indirubin 3’-monoxime]
hematologic, renal or liver toxicity [1]: not associated with hematologic, renal or liver toxicity; also recorded: no hematologic, liver or renal toxicity
P24 (HIV-1 NL4-3; IM alone (IND 0 nM), IND experiment, untreated control 55.00): 4.00 ng/mL
P24 (HIV-1 NL4-3; IM alone (RAL 0 nM), RAL experiment, untreated control 24.0): 8.00 ng/mL
P24 (HIV-1 NL4-3; IM alone (TDF 0 µM), TDF experiment, untreated control 50.0): 10.0 ng/mL
EC50 (HIV [2]): 1000 nM
EC50 (HIV [3]): 500 nM
inhibition of plasma HIV RNA levels (HIV [4]; 40 mg/kg, previous study): 2 log 10 units
general toxicity (HIV [4]; NSG mice, daily doses between 2.5 and 40 mg/kg): absence of general toxicity
inhibition of CDK9 relative to other CDKs (CDK9): inhibits CDK9 more potently than other CDKs
cytotoxicity (primary lymphocytes): not cytotoxic
cytotoxicity (macrophages): not cytotoxic
penetration in brain [5]: favorable penetration in brain
